Reference: patent US20260258035A1, “FIVE-MEMBERED AND SIX-MEMBERED NITROGEN-CONTAINING COMPOUND, AND INTERMEDIATE, PREPARATION METHOD AND USE THEREOF” (HANGZHOU SYNRX THERAPEUTICS BIOMEDICAL TECHNOLOGY CO., LTD., priority 2022, published 2026)
Like-named read-outs stand apart in the source and are kept apart here.

Columns and labels:
HCC1806 = test: Cell viability assay (CellTiter-Glo); type: cell-based, Human; conditions: HCC1806, 7 days, CellTiter-Glo, read-out: IC50 (nM) in cell viability assay
PARG = PARG (Homo sapiens, UniProt Q86W56); test: Biochemical assay (PARG, TFMU-ADPr substrate)
[1] = 4 nM PARG, 66.2 uM TFMU-ADPr, 3 min at room temperature

Chain of PARG (Q86W56 whole entry): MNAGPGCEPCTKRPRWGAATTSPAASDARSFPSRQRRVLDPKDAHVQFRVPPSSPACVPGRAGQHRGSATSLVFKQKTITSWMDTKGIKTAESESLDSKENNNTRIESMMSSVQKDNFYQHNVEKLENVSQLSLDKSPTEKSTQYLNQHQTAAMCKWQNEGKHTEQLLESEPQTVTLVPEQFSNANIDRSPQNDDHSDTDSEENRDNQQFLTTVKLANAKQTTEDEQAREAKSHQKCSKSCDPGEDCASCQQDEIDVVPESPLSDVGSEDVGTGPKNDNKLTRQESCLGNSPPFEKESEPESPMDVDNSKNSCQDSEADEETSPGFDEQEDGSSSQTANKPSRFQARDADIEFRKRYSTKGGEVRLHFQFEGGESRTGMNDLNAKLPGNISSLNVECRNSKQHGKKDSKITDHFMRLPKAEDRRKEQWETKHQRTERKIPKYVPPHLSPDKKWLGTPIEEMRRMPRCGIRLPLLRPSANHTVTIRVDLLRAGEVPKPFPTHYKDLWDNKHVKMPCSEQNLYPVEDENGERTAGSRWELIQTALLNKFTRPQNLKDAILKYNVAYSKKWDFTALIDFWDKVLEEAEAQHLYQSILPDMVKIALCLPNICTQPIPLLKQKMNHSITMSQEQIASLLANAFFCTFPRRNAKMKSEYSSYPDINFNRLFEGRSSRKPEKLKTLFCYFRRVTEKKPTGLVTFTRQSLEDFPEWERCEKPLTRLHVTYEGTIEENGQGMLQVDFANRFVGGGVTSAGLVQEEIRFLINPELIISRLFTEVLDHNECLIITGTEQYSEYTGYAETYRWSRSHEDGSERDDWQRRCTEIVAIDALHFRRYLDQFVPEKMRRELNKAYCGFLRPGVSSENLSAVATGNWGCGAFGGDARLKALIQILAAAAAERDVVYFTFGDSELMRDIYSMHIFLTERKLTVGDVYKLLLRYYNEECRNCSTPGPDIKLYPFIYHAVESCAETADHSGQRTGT

Row | Compound | IC50 (HCC1806; Homo sapiens, HCC1806, 168 h) [nM] | IC50 (PARG; PARG, TFMU-ADPr substrate) [nM] | IC50 (HCC1806) [nM] | IC50 (PARG; [1]) [nM]
1 | COC[C@H]1CN(c2cc(S(=O)(=O)NC3(C)COC3)cn3c(-c4nnc(C(F)F)s4)nc(Cl)c23)C[C@H](C)N1 [Example 403, 1-chloro-3-(5-(difluoromethyl)-1,3,4-thiadiazol-2-yl)-8-((3R,5S)-3-(methoxymethyl)-5-methylpiperazin-1-yl)-N-(3-methyloxetan-3-yl)imidazo[1,5-a]pyridine-6-sulfonamide] | 458 | 21.9 |  | 
2 | CN(C)CCC(=O)N1CCN(c2cc(S(=O)(=O)NC3(C#N)CC3)cn3c(-c4nnc(C(F)(F)F)s4)ncc23)CC1 [Example 249, N-(1-cyanocyclopropyl)-8-(4-(3-(dimethylamino)propanoyl)piperazin-1-yl)-3-(5-(trifluoromethyl)-1,3,4-thiadiazol-2-yl)imidazo[1,5-a]pyridine-6-sulfonamide] | 7320 | 115 |  | 
3 | COC(C)C(=O)N1CCN(c2cc(S(=O)(=O)NC3(C)CC3)cn3c(-c4nnc(C(F)(F)F)s4)ncc23)CC1 (stereo not drawn) [Example 328, 8-(4-(2-methoxypropanoyl)piperazin-1-yl)-N-(1-methylcyclopropyl)-3-(5-(trifluoromethyl)-1,3,4-thiadiazol-2-yl)imidazo[1,5-a]pyridine-6-sulfonamide] | 55.6 | 1.21 |  | 
4 | CC#CC(C)(O)C(=O)N1CCN(c2cc(S(=O)(=O)NC3(C#N)CC3)cn3c(-c4nnc(C(F)(F)F)s4)ncc23)CC1 (stereo not drawn) [Example 256, N-(1-cyanocyclopropyl)-8-(4-(2-hydroxy-2-methylpent-3-ynoyl)piperazin-1-yl)-3-(5-(trifluoromethyl)-1,3,4-thiadiazol-2-yl)imidazo[1,5-a]pyridine-6-sulfonamide] | 80 | 8.71 |  | 
5 | CC1(NS(=O)(=O)c2cc(N3CCN(C(=O)C4CC(=O)N4)CC3)c3cnc(-c4nnc(C(F)(F)F)s4)n3c2)CC1 (stereo not drawn) [Example 343, N-(1-methylcyclopropyl)-8-(4-(4-oxoazetidine-2-carbonyl)piperazin-1-yl)-3-(5-(trifluoromethyl)-1,3,4-thiadiazol-2-yl)imidazo[1,5-a]pyridine-6-sulfonamide] | 852 | 5.41 |  | 
6 | CC(C)C(=O)N1CCN(c2cc(S(=O)(=O)NC3(C#N)CC3)cn3c(-c4nnc(C(F)F)s4)nnc23)CC1 [Example 105, N-(1-cyanocyclopropyl)-3-(5-(difluoromethyl)-1,3,4-thiadiazol-2-yl)-8-(4-isobutyrylpiperazin-1-yl)-[1,2,4]triazolo[4,3-a]pyridine-6-sulfonamide] | 5000 to 30000 | 78.6 | 10000 | < 100
7 | CC(C)C(=O)N1CCN(c2cc(S(=O)(=O)NC3(C)CC3)cn3c(-c4nnc(C(F)F)s4)ncc23)C[C@H]1CO [Example 331, (S)-3-(5-(difluoromethyl)-1,3,4-thiadiazol-2-yl)-8-(3-(hydroxymethyl)-4-isobutyrylpiperazin-1-yl)-N-(1-methylcyclopropyl)imidazo[1,5-a]pyridine-6-sulfonamide] | 78.1 | 0.44 |  | 
8 | CC(C)C(=O)N1CC=C(c2cc(S(=O)(=O)NC3(C#N)CC3)cn3c(-c4nnc(C(F)(F)F)s4)ncc23)CC1 [Example 368, N-(1-cyanocyclopropyl)-8-(1-isobutyryl-1,2,3,6-tetrahydropyridin-4-yl)-3-(5-(trifluoromethyl)-1,3,4-thiadiazol-2-yl)imidazo[1,5-a]pyridine-6-sulfonamide] | 900 | 13.8 |  | 
9 | CC(C)C(=O)N1CCN(c2cc(S(=O)(=O)NC3(C#N)CC3)cn3c(-c4nnc(C(F)F)s4)cnc23)C[C@H]1C [Example 206, (R)-N-(1-cyanocyclopropyl)-3-(5-(difluoromethyl)-1,3,4-thiadiazol-2-yl)-8-(4-isobutyryl-3-methylpiperazin-1-yl)imidazo[1,2-a]pyridine-6-sulfonamide] | 1180 | 21.9 |  | 
10 | CC1(NS(=O)(=O)c2cc(N3CCN(C(=O)C4(OCCO)CC4)CC3)c3cnc(-c4nnc(C(F)(F)F)s4)n3c2)CC1 [Example 383, 8-(4-(1-(2-hydroxyethoxy)cyclopropane-1-carbonyl)piperazin-1-yl)-N-(1-methylcyclopropyl)-3-(5-(trifluoromethyl)-1,3,4-thiadiazol-2-yl)imidazo[1,5-a]pyridine-6-sulfonamide] | 14.8 | 0.25 |  | 
11 | CC(C)C(=O)N1CCN(c2cc(S(=O)(=O)NC3CC3)cn3c(-c4nnc(C(F)F)s4)nc(Cl)c23)C[C@H]1C [Example 131, (R)-1-chloro-N-cyclopropyl-3-(5-(difluoromethyl)-1,3,4-thiadiazol-2-yl)-8-(4-isobutyryl-3-methylpiperazin-1-yl)imidazo[1,5-a]pyridine-6-sulfonamide] | 1680 | 22.9 |  | 
12 | COC1(C(=O)N2CCC(c3cc(S(=O)(=O)NC4(C#N)CC4)cn4c(-c5nnc(C(F)(F)F)s5)ncc34)CC2)CC1 [Example 373, N-(1-cyanocyclopropyl)-8-(1-(1-methoxycyclopropane-1-carbonyl)piperidin-4-yl)-3-(5-(trifluoromethyl)-1,3,4-thiadiazol-2-yl)imidazo[1,5-a]pyridine-6-sulfonamide] | 21.1 | 3.31 |  | 
13 | CN1CC(C(=O)N2CCN(c3cc(S(=O)(=O)NC4(C#N)CC4)cn4c(-c5nnc(C(F)(F)F)s5)ncc34)CC2)C1 [Example 252, N-(1-cyanocyclopropyl)-8-(4-(1-methylazetidine-3-carbonyl)piperazin-1-yl)-3-(5-(trifluoromethyl)-1,3,4-thiadiazol-2-yl)imidazo[1,5-a]pyridine-6-sulfonamide] | 2000 | 16.6 |  | 
14 | CC(C)C(=O)N1CCN(c2cc(S(=O)(=O)NC3CC3)cn3c(-c4nnc(C(F)(F)F)s4)nc(Cl)c23)CC1 [Example 121, 1-chloro-N-cyclopropyl-8-(4-isobutyrylpiperazin-1-yl)-3-(5-(trifluoromethyl)-1,3,4-thiadiazol-2-yl)imidazo[1,5-a]pyridine-6-sulfonamide] | 2590 | 60.1 |  | < 100
15 | C[C@H]1CN(c2cc(S(=O)(=O)NC3(C)COC3)cn3c(-c4nnc(C(F)F)s4)ncc23)C[C@H](C)N1C [Example 400, 3-(5-(difluoromethyl)-1,3,4-thiadiazol-2-yl)-N-(3-methyloxetan-3-yl)-8-((3S,5S)-3,4,5-trimethylpiperazin-1-yl)imidazo[1,5-a]pyridine-6-sulfonamide] | 267 | 6.31 |  | 
16 | C[C@H]1CN(c2cc(S(=O)(=O)NC3(C)COC3)cn3c(-c4nnc(C(F)F)s4)nc(Cl)c23)C[C@H](C)N1 [Example 126, 1-chloro-3-(5-(difluoromethyl)-1,3,4-thiadiazol-2-yl)-8-((3S,5S)-3,5-dimethylpiperazin-1-yl)-N-(3-methyloxetan-3-yl)imidazo[1,5-a]pyridine-6-sulfonamide] | 602 | 5.34 |  | 
17 | C[C@@H]1CN(c2cc(S(=O)(=O)NC3(C)COC3)cn3c(-c4nnc(C(F)F)s4)ncc23)C[C@@H](C)N1 [Example 180, 3-(5-(difluoromethyl)-1,3,4-thiadiazol-2-yl)-8-((3R,5R)-3,5-dimethylpiperazin-1-yl)-N-(3-methyloxetan-3-yl)imidazo[1,5-a]pyridine-6-sulfonamide] | 517 | 5.62 |  | 
18 | CN(C)CCN(C)C(=O)N1CCN(c2cc(S(=O)(=O)NC3(C)COC3)cn3c(-c4nnc(C(F)F)s4)nc(Cl)c23)CC1 [Example 188, 4-(1-chloro-3-(5-(difluoromethyl)-1,3,4-thiadiazol-2-yl)-6-(N-(3-methyloxetan-3-yl)sulfamoyl)imidazo[1,5-a]pyridin-8-yl)-N-(2-(dimethylamino)ethyl)-N-methylpiperazine-1-carboxamide] | 85 | 0.71 |  | 
19 | CC(C)C(=O)NC1CCN(c2cc(S(=O)(=O)NC3(C#N)CC3)cn3c(-c4nnc(C(F)(F)F)s4)ncc23)CC1 [Example 268, N-(1-(6-(N-(1-cyanocyclopropyl)sulfamoyl)-3-(5-(trifluoromethyl)-1,3,4-thiadiazol-2-yl)imidazo[1,5-a]pyridin-8-yl)piperidin-4-yl)isobutyramide] | 2210 | 100 |  | 
20 | CC1(NS(=O)(=O)c2cc(N3CCN(C4CC4)CC3)c3cnc(-c4nnc(C(F)F)s4)n3c2)COC1 [Example 364, 8-(4-cyclopropylpiperazin-1-yl)-3-(5-(difluoromethyl)-1,3,4-thiadiazol-2-yl)-N-(3-methyloxetan-3-yl)imidazo[1,5-a]pyridine-6-sulfonamide] | 791 | 41.4 |  | 
21 | N#CC1(NS(=O)(=O)c2cc(N3CC[C@H](O)C3)c3cnc(-c4nnc(C(F)(F)F)s4)n3c2)CC1 [Example 239, (S)-N-(1-cyanocyclopropyl)-8-(3-hydroxypyrrolidin-1-yl)-3-(5-(trifluoromethyl)-1,3,4-thiadiazol-2-yl)imidazo[1,5-a]pyridine-6-sulfonamide] | 9790 | 380 |  | 
22 | CN(C)C(=O)N1CC2(CC=C(c3nc(-c4nnc(C(F)F)s4)n4cc(S(=O)(=O)NC5(C#N)CC5)ccc34)C2)C1 [Example 25, 6-(6-(N-(1-cyanocyclopropyl)sulfamoyl)-3-(5-(difluoromethyl)-1,3,4-thiadiazol-2-yl)imidazo[1,5-a]pyridin-1-yl)-N,N-dimethyl-2-azaspiro[3.4]oct-6-ene-2-carboxamide] | < 500 | 4.84 | 490 | < 100
23 | COC1(C(=O)N2[C@@H](C)CN(c3cc(S(=O)(=O)NC4(C)COC4)cn4c(-c5nnc(C(F)F)s5)ncc34)C[C@@H]2C)CC1 [Example 399, 3-(5-(difluoromethyl)-1,3,4-thiadiazol-2-yl)-8-((3S,5S)-4-(1-methoxycyclopropane-1-carbonyl)-3,5-dimethylpiperazin-1-yl)-N-(3-methyloxetan-3-yl)imidazo[1,5-a]pyridine-6-sulfonamide] | 755 | 12.6 |  | 
